≈ marks a conversion by molar mass, not a printed value. Values belong to the compound of their own block, whether it stands above or below them.
What was measured:
Type in all cases: functional
[1] = Antifungal activity against Trichosporon cutaneum ATCC 28592 by broth microdilution method; conditions: Cutaneotrichosporon cutaneum
[2] = system: Candida albicans; experiment: Antifungal activity against Candida albicans Strain 23 by broth microdilution method
[3] = system: Mucor hiemalis; experiment: Antifungal activity against Mucor hiemalis ATCC 8690 by broth microdilution method
[4] = system: Candida albicans; experiment: Antifungal activity against Candida albicans Strain 9 by broth microdilution method
[5] = system: Candida albicans; experiment: Antifungal activity against Candida albicans Strain 25 by broth microdilution method
[6] = system: Candida albicans; experiment: Antifungal activity against Candida albicans Strain 11 by broth microdilution method
[7] = system: Candida albicans; experiment: Antifungal activity against Candida albicans Strain 14 by broth microdilution method
[8] = system: Candida albicans; experiment: Antifungal activity against Candida albicans Strain 24 by broth microdilution method
[9] = system: Candida albicans; experiment: Antifungal activity against Candida albicans Strain 12 by broth microdilution method
[10] = system: Candida albicans; experiment: Antifungal activity against Candida albicans Strain 29 by broth microdilution method
[11] = system: Candida albicans; experiment: Antifungal activity against Candida albicans Strain 27 by broth microdilution method
[12] = system: Candida albicans; experiment: Antifungal activity against Candida albicans Strain 1 by broth microdilution method
[13] = system: Candida albicans; experiment: Antifungal activity against Candida albicans Strain 6 by broth microdilution method
[14] = system: Candida albicans; experiment: Antifungal activity against Candida albicans Strain 28 by broth microdilution method
[15] = system: Candida albicans; experiment: Antifungal activity against Candida albicans Strain 7 by broth microdilution method
[16] = system: Kluyveromyces marxianus; experiment: Antifungal activity against Candida pseudotropicalis by broth microdilution method
[17] = system: Pichia kudriavzevii; experiment: Antifungal activity against Candida krusei by broth microdilution method
[18] = system: Candida albicans; experiment: Antifungal activity against Candida albicans Strain 13 by broth microdilution method
[19] = system: Candida parapsilosis; experiment: Antifungal activity against Candida parapsilosis by broth microdilution method; conditions: Lodderomyces parapsilosis
[20] = system: Candida albicans; experiment: Antifungal activity against Candida albicans Strain 3 by broth microdilution method
[21] = system: Candida tropicalis; experiment: Antifungal activity against Candida tropicalis ATCC 13803 by broth microdilution method
[22] = system: Candida albicans; experiment: Antifungal activity against Candida albicans Strain 5 by broth microdilution method
[23] = system: Yarrowia lipolytica; experiment: Antifungal activity against Candida lipolytica by broth microdilution method
[24] = system: Candida albicans; experiment: Antifungal activity against Candida albicans Strain 10 by broth microdilution method
[25] = system: Candida albicans; experiment: Antifungal activity against Candida albicans Strain 15 by broth microdilution method
[26] = system: Candida albicans; experiment: Antifungal activity against Candida albicans Strain 26 by broth microdilution method
[27] = system: Candida albicans; experiment: Antifungal activity against Candida albicans Strain 21 by broth microdilution method
[28] = system: Candida albicans; experiment: Antifungal activity against Candida albicans Strain 22 by broth microdilution method
[29] = system: Candida albicans; experiment: Antifungal activity against Candida albicans Strain 20 by broth microdilution method
[30] = system: Candida albicans; experiment: Antifungal activity against Candida albicans Strain 19 by broth microdilution method
[31] = system: Cyberlindnera jadinii; experiment: Antifungal activity against Candida utilis ATCC 9226 by broth microdilution method; conditions: Williopsis jadinii
[32] = system: Candida albicans; experiment: Antifungal activity against Candida albicans Strain 4 by broth microdilution method
[33] = system: Candida albicans; experiment: Antifungal activity against Candida albicans Strain 17 by broth microdilution method
[34] = system: Candida albicans; experiment: Antifungal activity against Candida albicans ATCC 10231 by broth microdilution method
[35] = system: Rhizopus arrhizus; experiment: Antifungal activity against Rhizopus oryzae ATCC 10329 by broth microdilution method
[36] = system: Candida albicans; experiment: Antifungal activity against Candida albicans Strain 16 by broth microdilution method
[37] = system: Candida albicans; experiment: Antifungal activity against Candida albicans Strain 2 by broth microdilution method
[38] = system: Candida albicans; experiment: Antifungal activity against Candida albicans Strain 18 by broth microdilution method
[39] = system: Nakaseomyces glabratus; experiment: Antifungal activity against Candida glabrata by broth microdilution method
[40] = system: Aspergillus fumigatus; experiment: Antifungal activity against Aspergillus fumigatus 16907 by broth microdilution method
[41] = system: Candida albicans; experiment: Antifungal activity against Candida albicans Strain 8 by broth microdilution method

MIC [1]: 8 µg/mL (≈ 19.7 µM)
MIC [2]: 0.06 µg/mL (≈ 0.148 µM)
MIC [3]: > 16 µg/mL
MIC [4]: 0.25 µg/mL (≈ 0.617 µM)
MIC [5]: 0.12 µg/mL (≈ 0.296 µM)
MIC [6]: 0.12 µg/mL (≈ 0.296 µM)
MIC [7]: 0.06 µg/mL (≈ 0.148 µM)
MIC [8]: 0.12 µg/mL (≈ 0.296 µM)
MIC [9]: 0.12 µg/mL (≈ 0.296 µM)
MIC [10]: 0.25 µg/mL (≈ 0.617 µM)
MIC [11]: 0.06 µg/mL (≈ 0.148 µM)
MIC [12]: 0.12 µg/mL (≈ 0.296 µM)
MIC [13]: 0.06 µg/mL (≈ 0.148 µM)
MIC [14]: 0.12 µg/mL (≈ 0.296 µM)
MIC [15]: 0.12 µg/mL (≈ 0.296 µM)
MIC [16]: 0.5 µg/mL (≈ 1.23 µM)
MIC [17]: 0.12 µg/mL (≈ 0.296 µM)
MIC [18]: 0.06 µg/mL (≈ 0.148 µM)
MIC [19]: 0.12 µg/mL (≈ 0.296 µM)
MIC [20]: 0.12 µg/mL (≈ 0.296 µM)
MIC [21]: 0.12 µg/mL (≈ 0.296 µM)
MIC [22]: 0.12 µg/mL (≈ 0.296 µM)
MIC [23]: 0.12 µg/mL (≈ 0.296 µM)
MIC [24]: 0.12 µg/mL (≈ 0.296 µM)
MIC [25]: 0.12 µg/mL (≈ 0.296 µM)
MIC [26]: 0.12 µg/mL (≈ 0.296 µM)
MIC [27]: 0.12 µg/mL (≈ 0.296 µM)
MIC [28]: 0.06 µg/mL (≈ 0.148 µM)
MIC [29]: 0.12 µg/mL (≈ 0.296 µM)
MIC [30]: 0.12 µg/mL (≈ 0.296 µM)
MIC [31]: 0.25 µg/mL (≈ 0.617 µM)
MIC [32]: 0.12 µg/mL (≈ 0.296 µM)
MIC [33]: 0.12 µg/mL (≈ 0.296 µM)
MIC [34]: 0.06 µg/mL (≈ 0.148 µM)
MIC [35]: > 16 µg/mL
MIC [36]: 0.12 µg/mL (≈ 0.296 µM)
MIC [37]: 0.12 µg/mL (≈ 0.296 µM)
MIC [38]: 0.06 µg/mL (≈ 0.148 µM)
MIC [39]: 0.25 µg/mL (≈ 0.617 µM)
MIC [40]: 4 µg/mL (≈ 9.87 µM)
MIC [41]: 0.12 µg/mL (≈ 0.296 µM)
SMILES: COC(=O)c1ccc(COC(Cn2ccnc2)c2ccc(Cl)cc2Cl)cc1 (stereo not drawn)

MIC [1]: 16 µg/mL (≈ 38 µM)
MIC [2]: 0.12 µg/mL (≈ 0.285 µM)
MIC [3]: > 16 µg/mL
MIC [4]: 0.5 µg/mL (≈ 1.19 µM)
MIC [5]: 0.5 µg/mL (≈ 1.19 µM)
MIC [6]: 0.5 µg/mL (≈ 1.19 µM)
MIC [7]: 0.5 µg/mL (≈ 1.19 µM)
MIC [8]: 0.5 µg/mL (≈ 1.19 µM)
MIC [9]: 0.5 µg/mL (≈ 1.19 µM)
MIC [10]: 0.5 µg/mL (≈ 1.19 µM)
MIC [11]: 0.25 µg/mL (≈ 0.593 µM)
MIC [12]: 0.5 µg/mL (≈ 1.19 µM)
MIC [13]: 0.12 µg/mL (≈ 0.285 µM)
MIC [14]: 0.25 µg/mL (≈ 0.593 µM)
MIC [15]: 0.5 µg/mL (≈ 1.19 µM)
MIC [16]: 1 µg/mL (≈ 2.37 µM)
MIC [17]: 2 µg/mL (≈ 4.75 µM)
MIC [18]: 0.5 µg/mL (≈ 1.19 µM)
MIC [19]: 2 µg/mL (≈ 4.75 µM)
MIC [20]: 0.12 µg/mL (≈ 0.285 µM)
MIC [21]: 1 µg/mL (≈ 2.37 µM)
MIC [22]: 0.5 µg/mL (≈ 1.19 µM)
MIC [23]: 0.5 µg/mL (≈ 1.19 µM)
MIC [24]: 0.5 µg/mL (≈ 1.19 µM)
MIC [25]: 0.5 µg/mL (≈ 1.19 µM)
MIC [26]: 0.5 µg/mL (≈ 1.19 µM)
MIC [27]: 0.5 µg/mL (≈ 1.19 µM)
MIC [28]: 0.12 µg/mL (≈ 0.285 µM)
MIC [29]: 0.12 µg/mL (≈ 0.285 µM)
MIC [30]: 0.12 µg/mL (≈ 0.285 µM)
MIC [31]: 1 µg/mL (≈ 2.37 µM)
MIC [32]: 0.06 µg/mL (≈ 0.142 µM)
MIC [33]: 0.5 µg/mL (≈ 1.19 µM)
MIC [34]: 0.12 µg/mL (≈ 0.285 µM)
MIC [35]: > 16 µg/mL
MIC [36]: 0.12 µg/mL (≈ 0.285 µM)
MIC [37]: 0.5 µg/mL (≈ 1.19 µM)
MIC [38]: 0.06 µg/mL (≈ 0.142 µM)
MIC [39]: 0.5 µg/mL (≈ 1.19 µM)
MIC [40]: 4 µg/mL (≈ 9.49 µM)
MIC [41]: 0.12 µg/mL (≈ 0.285 µM)
SMILES: COc1ccc(CCOC(Cn2ccnc2)c2ccc(Cl)cc2Cl)cc1OC (stereo not drawn)

MIC [1]: 16 µg/mL (≈ 42.4 µM)
MIC [2]: 0.25 µg/mL (≈ 0.663 µM)
MIC [3]: > 16 µg/mL
MIC [4]: 0.5 µg/mL (≈ 1.33 µM)
MIC [5]: 0.12 µg/mL (≈ 0.318 µM)
MIC [6]: 0.25 µg/mL (≈ 0.663 µM)
MIC [7]: 0.12 µg/mL (≈ 0.318 µM)
MIC [8]: 0.12 µg/mL (≈ 0.318 µM)
MIC [9]: 0.12 µg/mL (≈ 0.318 µM)
MIC [10]: 0.5 µg/mL (≈ 1.33 µM)
MIC [11]: 0.12 µg/mL (≈ 0.318 µM)
MIC [12]: 0.12 µg/mL (≈ 0.318 µM)
MIC [13]: 0.12 µg/mL (≈ 0.318 µM)
MIC [14]: 0.12 µg/mL (≈ 0.318 µM)
MIC [15]: 0.12 µg/mL (≈ 0.318 µM)
MIC [16]: 0.5 µg/mL (≈ 1.33 µM)
MIC [17]: 1 µg/mL (≈ 2.65 µM)
MIC [18]: 0.12 µg/mL (≈ 0.318 µM)
MIC [19]: 1 µg/mL (≈ 2.65 µM)
MIC [20]: 0.12 µg/mL (≈ 0.318 µM)
MIC [21]: 0.5 µg/mL (≈ 1.33 µM)
MIC [22]: 0.12 µg/mL (≈ 0.318 µM)
MIC [23]: 0.25 µg/mL (≈ 0.663 µM)
MIC [24]: 0.12 µg/mL (≈ 0.318 µM)
MIC [25]: 0.25 µg/mL (≈ 0.663 µM)
MIC [26]: 0.25 µg/mL (≈ 0.663 µM)
MIC [27]: 0.25 µg/mL (≈ 0.663 µM)
MIC [28]: 0.12 µg/mL (≈ 0.318 µM)
MIC [29]: 0.06 µg/mL (≈ 0.159 µM)
MIC [30]: 0.12 µg/mL (≈ 0.318 µM)
MIC [31]: 0.5 µg/mL (≈ 1.33 µM)
MIC [32]: 0.12 µg/mL (≈ 0.318 µM)
MIC [33]: 0.12 µg/mL (≈ 0.318 µM)
MIC [34]: 0.12 µg/mL (≈ 0.318 µM)
MIC [35]: > 16 µg/mL
MIC [36]: 0.12 µg/mL (≈ 0.318 µM)
MIC [37]: 0.12 µg/mL (≈ 0.318 µM)
MIC [38]: 0.06 µg/mL (≈ 0.159 µM)
MIC [39]: 0.5 µg/mL (≈ 1.33 µM)
MIC [40]: 4 µg/mL (≈ 10.6 µM)
MIC [41]: 0.12 µg/mL (≈ 0.318 µM)
SMILES: OCc1ccc(COC(Cn2ccnc2)c2ccc(Cl)cc2Cl)cc1 (stereo not drawn)

Source: ChEMBL document CHEMBL3421620, “A facile synthesis of novel miconazole analogues and the evaluation of their antifungal activity” (2015)
